For assay [1], the system named is MIA Paca-2. Nature of the assay: Inhibition of cell proliferation, MIA Paca-2 (CCK-8). The class given is cell-based. The conditions noted are these: Homo sapiens, MIA Paca-2 cells, read-out: Inhibition activity on the proliferation of different cell lines MIA Paca-2 (IC50). The protocol: (1) MV-411 cells were cultured in the cell culture medium, and then well-growing cells were selected and inoculated in a 96-well plate at 80 μL/well, with 2×10^4 cells/well. The plate was incubated overnight in a 5% CO2 cell incubator at 37° C.
(2) 10 mM storage solution of each drug was prepared using dimethylsulfoxide (DMSO). The stock solution was diluted in a ratio of 1:3 with DMSO before use, and then the solution was serially diluted in a ratio of 1:3, to obtain 9 gradient concentrations. Each concentration was further diluted with the medium in a ratio of 1:200 (to ensure that the DMSO concentration in the culture system was 0.1%). Two wells were set for each concentration. 20 μL of each compound solution was added to the cell culture well (with a final concentration of 10 μM, 3.3 μM, 1.1 μM . . . ). The plate was gently shaken and mixed. Additionally, 3 negative control wells (only containing cells) and 3 blank control wells (only containing the medium) were included (6 wells were each added with 20 μL of DMSO diluted with the medium in a ratio of 1:200).
(1) After 5 days of cultivation, 10 μL of CCK-8 was added to each well, and then the plate was further cultured for 3 h at 37° C. in a 5% CO2 cell incubator.
(2) The absorbance (OD value) was measured at 450 nm with a multifunctional microplate reader. (3) The data were analyzed using the Dose-response-inhibition equation in GraphPad Prism8 software to obtain the IC50 value.
Using a similar method, the IC50 value (nM) for the inhibitory activity of the compound according to the present invention against different cell lines was obtained, and the results are shown in Table 3 (++++: IC50>5 μM; +++: 1 μM<IC50<5 μM; ++: IC50<1 μM).

In assay [2] the target is T1, SHP2 protein (Homo sapiens, UniProt Q06124).
T1 sequence (Q06124 1-593): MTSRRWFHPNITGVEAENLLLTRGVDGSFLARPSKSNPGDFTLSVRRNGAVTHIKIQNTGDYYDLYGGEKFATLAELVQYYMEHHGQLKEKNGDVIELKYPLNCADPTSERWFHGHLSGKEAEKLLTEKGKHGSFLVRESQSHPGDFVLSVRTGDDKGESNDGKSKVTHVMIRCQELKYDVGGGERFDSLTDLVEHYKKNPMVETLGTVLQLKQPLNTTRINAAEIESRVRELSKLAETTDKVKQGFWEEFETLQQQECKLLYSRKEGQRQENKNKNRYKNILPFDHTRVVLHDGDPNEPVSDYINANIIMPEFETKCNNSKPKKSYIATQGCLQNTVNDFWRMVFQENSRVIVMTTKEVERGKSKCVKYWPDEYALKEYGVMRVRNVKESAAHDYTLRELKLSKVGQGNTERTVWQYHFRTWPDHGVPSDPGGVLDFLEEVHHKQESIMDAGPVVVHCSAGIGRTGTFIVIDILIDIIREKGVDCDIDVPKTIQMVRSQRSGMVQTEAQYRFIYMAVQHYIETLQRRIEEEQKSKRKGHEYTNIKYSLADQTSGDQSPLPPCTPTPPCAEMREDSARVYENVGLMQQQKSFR
Nature of the assay: Degradation activity on SHP2 protein in MV-411 cells (Western blot, DC50). The class given is cell-based. Further details: endogenous in cells. The note with it: MV411 cells, 24 hours, read-out: Degradation activity for differenct cell lines MV411 (DC50). The gist of the method:
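MV-411 cells (1×10^6 cells/well, IMDM + 10% FBS) were treated 24 h with compound at 0.1-100 nM final, 0.1% DMSO, duplicates. SHP2 measured by Western blot against GAPDH, band density normalised to DMSO control; DC50 from dose-response fit.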
(In general: Immunoblotting shows a protein as a band on a membrane.)

Broadly, the DC50 is the concentration at which degradation of the target reaches its halfway point.

Consider `CC1(N)CCN(c2cnc(Sc3cccc(NC(=O)CCCCCCCCN4CCN(c5ccc(C(=O)NCc6ccc7c(c6)CN(C6CCC(=O)NC6=O)C7=O)nn5)CC4)c3)cn2)CC1` (stereo not drawn) [Compound 63], for which the IC50 in assay [1] was 1000 to 5000 nM. Besides, the DC50 in assay [2] is less than 100 nM.

Turning to `CC1(N)CCN(c2cnc(Sc3cccc(NC(=O)CCCCCCCCN4C5CCC4CN(c4ccc(C(=O)NCc6ccc7c(c6)CN(C6CCC(=O)NC6=O)C7=O)nn4)C5)c3)cn2)CC1` (stereo not drawn) [Compound 119], the IC50 in assay [1] was 1000 to 5000 nM. Also, the DC50 in assay [2] was less than 100 nM.

Take `CCC1(N)CCN(c2cnc(Sc3cccc(NC(=O)CCCCCCN4CC5(CCN(c6ccc(C(=O)NCc7ccc8c(c7)CN(C7CCC(=O)NC7=O)C8=O)nn6)C5)C4)c3)cn2)CC1` (stereo not drawn) [Compound 161]: the IC50 in assay [1] lay within 1000 to 5000 nM. The DC50 in assay [2] is less than 100 nM.

Consider `NC1(CO)CCN(c2cnc(Sc3cccc(NC(=O)CCCCCCN4CC5(CCN(c6ccc(C(=O)NCc7ccc8c(c7)CN(C7CCC(=O)NC7=O)C8=O)nn6)C5)C4)c3)cn2)CC1` (stereo not drawn) [Compound 168], for which the IC50 in assay [1] was 1000 to 5000 nM. Also, the DC50 in assay [2] is less than 100 nM.

On to `CC1(N)CCN(c2cnc(Sc3cccc(NC(=O)CCCCCCCCN4CCN(c5ccc(C(=O)NCc6ccc7c(c6)CN(C6CCC(=O)NC6=O)C7=O)nn5)CC4C(F)(F)F)c3)cn2)CC1` (stereo not drawn) [Compound 174], for which the IC50 in assay [1] was 1000 to 5000 nM. Besides, the DC50 in assay [2] is less than 100 nM.

On to `Cc1ncsc1-c1ccc([C@H](C)NC(=O)[C@@H]2C[C@@H](O)CN2C(=O)[C@@H](NC(=O)CCCCCCCCN2CCN(C(=O)CCC(=O)Nc3cccc(Sc4ncc(N5CCC(C)(N)CC5)nc4N)c3Cl)CC2)C(C)(C)C)cc1` [Compound 999], for which the IC50 in assay [1] fell in the range of 1000 to 5000 nM. Besides, in assay [2], the DC50 is less than 100 nM.
